The data set in a line: in vitro. To be noted: human, hela cells, % viability.

The structures appear in SMILES notation.

As to `CCOc1cccc(N2C(=O)/C(=C\c3ccc(-c4ccc(C(=O)O)c(Cl)c4)o3)C(=O)NC2=S)c1` [CBK263403], the viability at 28.5 h, 10 µM (bulk resorufin, single well) worked out at 92.1%.
Take `COc1ccc(Cl)cc1NC(=O)CCN1CCN(C)CC1` [CBK278177C]: the viability at 28.5 h, 10 µM stood at 91%.
On the same count and under the same terms, the same measure for `c1cc2c(cc1-c1nn3cnnc3s1)OCCO2` [CBK287866]: 88.1%; for `CC(C)c1cc(C(=O)N2CCOCC2)c(NC(=O)c2cc(-c3cccnc3)nc3ccc(Br)cc23)s1` [CBK267763]: 93.7%; for `CCOC(=O)C1CCN(Cn2nc(O)ccc2=O)CC1` [CBK263331]: 90.7%.
Consider `O=C(Cn1cnc2c(cnn2-c2ccccc2)c1=O)N1CCc2ccccc21` [CBK287529], for which the viability at 28.5 h, 10 µM was determined as 91.7%.
Same read-out and setting: the figure for `CC(=O)Nc1nc(OCC(F)(F)F)cnc1-c1cccc(C(=O)N(C)C)c1` [CBK145401] is 96%; for `c1ccc(OCCOc2nccnc2-c2ccsc2)cc1` [CBK106773] it is 103%; for `Cc1ccc(-c2c[nH]c([C@@H]3COCCN3Cc3csnn3)n2)cc1` [CBK289302] it is 91.4%.
Still for that read-out and setting: the same measure for `CC(=O)Nc1ccc(S(=O)(=O)Nc2cccc(-c3cn4cccnc4n3)c2)cc1` [CBK269125]: 74.9%; for `CCOC(=O)CCCCCCC(=O)N1CCN(c2ccc(C(F)(F)F)cc2)CC1` [CBK091327]: 107%; for `O=C(Cc1ccccc1Cl)N1CCC(O)(c2cccnc2F)CC1` [CBK284360]: 101%.
For the compound `O=C(NC[C@H]1C[C@@H]2CC[N@]1C[C@@H]2CN1CCN(c2ccccn2)CC1)c1ccco1` [CBK288867], the viability at 28.5 h, 10 µM worked out at 107%.
For `CC1CCc2c(sc3ncnc(OCC(=O)N4CCCCC4)c23)C1` (centres unmarked) [CBK304979], the viability at 28.5 h, 10 µM is 87.5%.
Same read-out and setting: the same measure for `O=C1Nc2ccc([N+](=O)[O-])cc2C1(O)N1CCCCC1` (centres unmarked) [CBK262496]: 80.6%.
Same read-out and setting: the figure for `O=C1NCCN1c1cccc(Cl)c1` [CBK016915] is 88.3%; for `CN(Cc1ccccc1)S(=O)(=O)c1ccc(OCC(=O)O)cc1` [CBK276426] it is 97.9%.
Consider `COCC(=O)N1CCN(C(=O)c2cccs2)[C@@H](C(=O)OC)C1` [CBK289614], for which the viability at 28.5 h, 10 µM was 111%.
The same measure, in the same setting: the figure for `Cc1cc(C(F)(F)F)c2c(NC/C=C/c3ccco3)n[nH]c2n1` [CBK283651] is 92.7%.
For the compound `CCn1cc(CN(CCO)C(=O)c2cccc(C#N)c2C)cn1` [CBK304196], the viability at 28.5 h, 10 µM came out at 109%.
On to `CC(NC(=O)N(Cc1cccc2ccccc12)C1CCC(N)CC1)c1cccc2ccccc12` (centres unmarked) [CBK000482C], for which the viability at 28.5 h, 10 µM worked out at 67.8%.
On the same count and under the same terms, the same measure for `Nc1c(-c2ccsc2)cnc2ncccc12` [CBK083707]: 108%; for `O=S(=O)(NC1CCN(Cc2ccccc2)CC1)c1cccc2nsnc12` [CBK062029]: 80.8%.
On the same count and under the same terms, the figure for `COc1cc2[nH]c(=O)c(C(=O)NCCc3ccc(Cl)cc3)c(O)c2cc1OC` [CBK159986] is 91.3%.
The same measure, in the same setting: the same measure for `O=C(Cn1nc(N2CCSCC2)ccc1=O)Nc1ccccc1` [CBK307623]: 97.2%; for `CS(=O)(=O)c1nnn(CC#N)n1` [CBK026075]: 90%.
Turning to `Nc1c(C(F)(F)F)cc(Cl)nc1Cl` [CBK005620], the viability at 28.5 h, 10 µM came to 95.7%.
Consider `Cc1cc(NC(=O)C2CCN(c3ncccc3C#N)CC2)no1` [CBK305689], for which the viability at 28.5 h, 10 µM was 88.3%.
Same read-out and setting: the same measure for `O=C(c1cccs1)N1CCC(c2nnc3n2CCCCC3)CC1` [CBK284626]: 95.7%.
The same measure, in the same setting: the figure for `Clc1ccc(COc2cc(N3CCCN(Cc4ccccc4-c4ccccc4)CC3)ncn2)cc1Cl` [CBK083781T] is 98.4%; for `COCC1CCN(c2c(F)cc(C#N)cc2F)CC1` [CBK306244] it is 104%.
Turning to `Cc1ccc(-c2noc(CSc3nnc(CCc4ccccc4)n3-c3ccccc3)n2)cc1` [CBK268493], the viability at 28.5 h, 10 µM came out at 93.1%.
The same measure, in the same setting: the figure for `C=Cn1ncc(CN(CCN(C)C)Cc2ccc(C)o2)c1C` [CBK283236] is 110%.
Same read-out and setting: the figure for `Cc1cc(=O)oc2cc(NC(=S)NNC(=O)C(C)Oc3ccc4c(c3)CCC4)ccc12` (centres unmarked) [CBK267031] is 91.4%; for `Clc1ccccc1OCCNC1CCc2[nH]c3ccccc3c2C1` (centres unmarked) [CBK107790] it is 107%; for `O=C(NCCO)c1nc(NCCO)c2ccccc2n1` [CBK267239] it is 110%.
On the same count and under the same terms, the same measure for `O=C(O)c1cc(NS(=O)(=O)c2ccc3c(c2)OCCCO3)ccc1F` [CBK296731]: 104%; for `CCOc1ccc(C(=O)C2=C(O)C(=O)N(CCN(C)C)C2c2cccnc2)cc1Cl` (centres unmarked) [CBK266585]: 96.5%; for `Cc1cc(S)c2cc(Br)ccc2n1` [CBK288445]: 80.5%.
Regarding `COc1ccc(-c2c[nH]c3c(=S)[nH]cnc23)cc1` [CBK288462], the viability at 28.5 h, 10 µM was determined as 60.5%.
On the same count and under the same terms, the figure for `COc1cc(NC(=O)COc2cc(C)cc(C)c2)c(C(=O)O)cc1OC` [CBK268650] is 93.8%; for `Cc1cccnc1C(NC(=O)C1CCN(C/C=C/c2ccco2)CC1)c1ccc(Cl)cc1` (centres unmarked) [CBK148201] it is 90%.
Take `Clc1ccc(-c2cncc(NCCc3ccncc3)n2)cc1` [CBK065787]: the viability at 28.5 h, 10 µM is 99.5%.
The same measure, in the same setting: the same measure for `CCn1cc(-c2cncn2CC(C)N2CCC(C)CC2)cn1` (centres unmarked) [CBK281565]: 91.7%; for `c1cncc(-c2cc(NCCc3ccncc3)ncn2)c1` [CBK037716]: 114%.
The same measure, in the same setting: the same measure for `Cc1cc(I)ccc1S(=O)(=O)NCc1ccccn1` [CBK262155]: 106%; for `COc1ccccc1-c1nnc(SCC(=O)N2CCN(c3ccccc3)CC2)[nH]1` [CBK270105]: 95.6%.
For the compound `C=CCn1c(SCCC(=O)O)nc2c1c(=O)n(C)c(=O)n2C` [CBK269573], the viability at 28.5 h, 10 µM is 79.3%.
Same read-out and setting: the figure for `COc1ccc2ncc3c(-c4ccccc4)n[nH]c3c2c1` [CBK288052] is 93.3%; for `COc1ccc(C2CC(c3ccc4ccccc4c3)=NN2C(=O)COc2ccccc2C(=O)O)cc1` (centres unmarked) [CBK297503] it is 102%.
`NC(=O)c1ccc(NC(=O)CSc2nnc(-c3ccncc3)n2-c2ccc(Br)cc2)cc1` [CBK266202]: the viability at 28.5 h, 10 µM turned out to be 103%.
Consider `O=C(Cc1csc(-c2ccc(Cl)cc2)n1)Nc1ccccn1` [CBK107364], for which the viability at 28.5 h, 10 µM is 85.8%.
Still for that read-out and setting: the figure for `CCN(CC)c1ccc(CN(CCCN(C)C)C(=O)NCc2ccc(F)cc2)cc1` [CBK159410] is 89.9%.
Same read-out and setting: the figure for `Cc1ccc([N+](=O)[O-])c(OCCNCCN(C)C)c1` [CBK267822C] is 89%; for `CC(=O)Nc1ccc(S(=O)(=O)Nc2ccc(-c3nc4cc(C(=O)c5ccccc5)ccc4[nH]3)cc2)cc1` [CBK267819] it is 99.2%; for `O=C(c1ccncc1)N(c1ccc2oc3c(c2c1)CCCC3)S(=O)(=O)c1cccc([N+](=O)[O-])c1` [CBK265705] it is 106%.
The same measure, in the same setting: the same measure for `Cc1c(C(=O)O)sc(S(=O)(=O)N2CCN(C(=O)Cc3ccccc3Cl)CC2)c1C(=O)O` [CBK297137]: 107%.
For the compound `Cc1nc(C)n(CC2CCCN2Cc2cn3ccccc3c2C#N)n1` (centres unmarked) [CBK304006], the viability at 28.5 h, 10 µM stood at 91%.
On the same count and under the same terms, the same measure for `C#CCNC(=O)[C@@H]1Cc2cn(Cc3cc(C)on3)c3cccc(c23)[C@H](CC(C)C)N1` [CBK289426]: 90.4%; for `COc1ccccc1C(=O)N1CCN(C(=O)CN2CCCC2)CC1` [CBK024836]: 88.1%.
On the same count and under the same terms, the same measure for `CC(=O)NC(c1nccs1)C1CCCN(CC2CCCCC2)C1` (centres unmarked) [CBK285152]: 95.1%; for `CC(Oc1cc(Cl)ccc1Cl)c1nnc(S)n1C` (centres unmarked) [CBK288376]: 84.8%.
Still for that read-out and setting: the same measure for `COc1ccccc1-c1ccc(C(=O)N(C)CCN(C)C)c(NCC2CC2)n1` [CBK106269]: 96.3%; for `CN(C)c1ccccc1-c1cc(NCCc2ccccn2)ncn1` [CBK037189]: 102%.
Consider `Cc1ccccc1C(=O)Nc1nc2ccc(S(C)(=O)=O)cc2s1` [CBK287337], for which the viability at 28.5 h, 10 µM was found to be 95.1%.
Consider `COc1cc(/C=N/Nc2ccc(C(=O)O)cc2)cc(Br)c1O` [CBK263318], for which the viability at 28.5 h, 10 µM amounted to 95.8%.
Same read-out and setting: the same measure for `O=C(NCCCN1CCOCC1)c1ccc2nccnc2c1` [CBK268704]: 114%; for `O=C(CC1CCCC1)N1CCC(c2nnc3n2CCCCC3)CC1` [CBK284630]: 84.6%.
Same read-out and setting: the figure for `CCCC(=O)c1ccc(S(=O)(=O)N2CCCN(Cc3c[nH]nc3-c3ccccc3)CC2)cc1` [CBK062916] is 83.9%; for `O=C(NCCc1noc(CO)n1)N(Cc1ccsc1)C1CCCCC1` [CBK307273] it is 98.5%.
Same read-out and setting: the figure for `Cc1c(C(=O)N(C)CC(C)C)nnn1-c1ccc2ncccc2c1` [CBK305161] is 102%; for `COc1ccc(C(=O)C2=C(O)C(=O)N(CCCN(C)C)C2c2ccc(Cl)c(Cl)c2)c(C)c1` (centres unmarked) [CBK264896] it is 98.8%; for `CCC(C(=O)Nc1ccccc1C(=O)Nc1c(Cl)cccc1Cl)c1ccccc1` (centres unmarked) [CBK266068] it is 98.4%.
As for `CC(=O)Nc1ccc(Sc2cnccn2)cc1` [CBK085838], the viability at 28.5 h, 10 µM is 89.7%.
The same measure, in the same setting: the figure for `CN(C)CC(=O)N1CCN(c2cncc(-c3ccc(O)cc3)n2)CC1` [CBK126921T] is 97.2%.
The same measure, in the same setting: the figure for `CSCCCNC(=O)N(C)C1CCN(C)C1` (centres unmarked) [CBK155995] is 104%; for `CN1CCC(=NNC(=O)c2ccc(CN(c3ccccc3)S(C)(=O)=O)cc2)CC1` [CBK262728] it is 97.8%.
Still for that read-out and setting: the same measure for `Cc1ccc(S(=O)(=O)NCCSc2nnc(N)s2)cc1` [CBK266300]: 97.9%.
Take `COC(=O)c1c(NC(=S)NCCn2cc(Br)cn2)sc2c1CCC(C)C2` (centres unmarked) [CBK266886]: the viability at 28.5 h, 10 µM turned out to be 89.8%.
The same measure, in the same setting: the figure for `CNCc1cc(Br)c(OCC(=O)Nc2ccccc2OC)c(OC)c1` [CBK107772] is 106%.

As usually defined, the viability is a read-out of living cells in per cent, often relative to untreated cells.

For the origin of these results see publication PMC12040169 (PLOS Biology, 2025).
